Legend:
MDA-MB-231 cells = test: MTT cytotoxicity with PTX after siRNA nanoparticles, MDA-MB-231; assay type: cell-based; conditions: Homo sapiens; MDA-MB-231, 0.5 ng/mL PTX 48 hours; combination: nanoparticles 48 hours first; read-out: cell viability (MTT)
Protocol: (§1) Cytotoxicity assays were performed in a 96-well plate as described previously, by seeding 2,000 MDA-MB-231 or MDA-MB-231.DR cells/well. […] Next, the wells were washed twice with PBS and incubation with various concentrations of PTX in fresh media. After 2 additional days, the MTT reagent (Invitrogen) was added to the cells for 4 hours followed by the addition of SDS-HCl and further incubation for 4 hours. The absorbance of each well was measured at 570 nm using a SpectraMax spectrophotometer (Molecular Devices). Cellular viability was calculated as the average of the set of triplicates for each PTX concentration and was normalized relative to the no treatment control. Drug resistance was confirmed with an MTT assay to determine the IC50 of paclitaxel. The IC50 was defined as the dose of drug required to inhibit cell viability by 50%.

MDA-MB-231.DR cells = test: MTT cytotoxicity with PTX after siRNA nanoparticles, MDA-MB-231.DR; assay type: cell-based; conditions: Homo sapiens, 0.5 ng/mL PTX 48 hours, combination: nanoparticles 48 hours first, read-out: cell viability (MTT)
Protocol: as §1

[1] = Nanoparticle diameter and polydispersity by dynamic light scattering (Malvern Zetasizer); assay type: physicochemical; conditions: for Nanoparticle diameter as measured by dynamic light scattering: siRNA-lipid complexes
Protocol: (§2) The cationic lipid carriers are dissolved in ethanol at a stock concentration of 2.5 mM, while all siRNA is reconstituted in nuclease-free water at a 0.25 μg/μL (18.8 μM) concentration. Nanoparticles are formulated by mixing the carriers with siRNA for a period of 30 min in RNase-free phosphate buffer saline (PBS) at pre-specified N/P ratios (N=number of protonable amines in lipid, P=number of phosphate groups in the siRNA). In preparing the lipoplexes, proper dilutions were made such that the volume ratio of ethanol:water was kept constant at 1:20. Minimizing the amount of ethanol is important because it is effective in dissolving lipids, thus inhibiting particle formation. The diameters (as determined by dynamic light scattering) and zeta potentials of all nanoparticles were analyzed using a Malvern Zetasizer instrument at pH=7.4. siRNA encapsulation efficiency was calculated using a RiboGreen fluorescence-based assay from Invitrogen, designed specifically for detection of free RNA at […] wavelengths of 480 and 520 nm, respectively. Nanoparticles were created with all carriers in the library so that final siRNA concentrations were 1.6 μg/mL. A linear standard curve was utilized to calculate the encapsulation efficiencies from signal intensities measured by a SpectraMax microplate reader (Molecular Devices).

[2] = Zeta-potential of siRNA-lipid complexes (Malvern Zetasizer); assay type: physicochemical
Protocol: as §2

[3] = system: HT29 colon carcinoma cells; test: Cellular uptake of Alexa Fluor 488-siRNA via flow cytometry; assay type: cell-based, human; conditions: HT29, N/P=18, 4 h, 100 nM Alexa Fluor 488-siRNA
Protocol: Flow cytometry was used to investigate the cellular uptake of our delivery system in HT29 colon carcinoma cells. All carriers in the library were formulated into nanoparticles by condensing Alexa Fluor 488-labeled siRNA at the optimal N/P ratio determined by the above luciferase knockdown studies. Approximately 50,000 cancer cells were seeded in 6-well plates and allowed to grow until 30-50% confluence was reached. The cancer cells were transfected with a 100 nM siRNA dose in serum-free media. After 4 h, the transfection media were aspirated and the cells were washed twice with PBS. The cells were then trypsinized, collected, and fixed with 2% paraformaldehyde in PBS, prior to flow cytometric analysis.

Red blood cells (RBCs) = test: pH-sensitive hemolytic activity of carrier library; assay type: cell-based, rat; conditions: all N/P ratios (5, 10, 15) and pHs (7.4, 6.5, 5.4) tested
Protocol: Hemolytic activity of each carrier was determined to verify the pH-sensitive membrane disruption capabilities of each carrier in the delivery system. Red blood cells (RBCs) extracted from rats were purchased from Innovative Research Inc. (Novi, Mich.) and diluted 1:50 in PBS solutions of pHs=5.4, 6.5, or 7.4. A total of 100 μL of nanoparticles were created at N/P ratios of 5, 10, 15 and then incubated with 100 μL of diluted RBCs at 37° C. for 2 h. Nanoparticles were formulated so that the final amine concentration for all the samples, after mixing with the RBCs, was 150 μM. Multiple pHs were tested to predict if the nanoparticles could disrupt membranes of the endosomal-lysosomal compartments (pH=5-6), without affecting the integrity of the outer cell membrane prior to endocytosis (pH=7.4). The absorbance of each test sample was measured on a SpectraMax spectrophotometer at a wavelength of 540 nm in order to determine the amount of hemoglobin released from the RBCs, due to membrane destabilization, relative to that achieved by a positive control treatment of 1% (v/v) Triton-X100 surfactant during the 2 hour incubation period.

| SMILES | viability at 0.0005 µg/mL (MDA-MB-231 cells) | viability at 0.0005 µg/mL (MDA-MB-231.DR cells) | Polydispersity of siRNA-lipid complexes ([1]; N/P = 2) | Polydispersity of siRNA-lipid complexes ([1]; N/P = 5) | Polydispersity of siRNA-lipid complexes ([1]; N/P = 8) | Polydispersity of siRNA-lipid complexes ([1]; N/P = 10) | Polydispersity of siRNA-lipid complexes ([1]; N/P = 15) | Nanoparticle diameter as measured by dynamic light scattering ([1]; N/P = 2) | Nanoparticle diameter as measured by dynamic light scattering ([1]; N/P = 5) | Nanoparticle diameter as measured by dynamic light scattering ([1]; N/P = 8) | Nanoparticle diameter as measured by dynamic light scattering ([1]; N/P = 10) | Nanoparticle diameter as measured by dynamic light scattering ([1]; N/P = 15) | Zeta-potential of siRNA-lipid complexes ([2]; pH = 7.4, N/P = 2) | Zeta-potential of siRNA-lipid complexes ([2]; pH = 7.4, N/P = 5) | Zeta-potential of siRNA-lipid complexes ([2]; pH = 7.4, N/P = 8) | Zeta-potential of siRNA-lipid complexes ([2]; pH = 7.4, N/P = 10) | Zeta-potential of siRNA-lipid complexes ([2]; pH = 7.4, N/P = 15) | cellular uptake, mean fluorescence intensity (MFI) [3] | hemolytic activity relative to Triton X-100 (Red blood cells (RBCs)) |
| --- | --- | --- | --- | --- | --- | --- | --- | --- | --- | --- | --- | --- | --- | --- | --- | --- | --- | --- | --- |
| CC(=O)O[C@H]1C(=O)[C@@]2(C)[C@H]([C@H](OC(=O)c3ccccc3)[C@]3(O)C[C@H](OC(=O)[C@H](O)[C@@H](NC(=O)c4ccccc4)c4ccccc4)C(C)=C1C3(C)C)[C@]1(OC(C)=O)CO[C@@H]1C[C@@H]2O [PTX, paclitaxel] | 44.6 ± 6.6% | 80.7 ± 2.9% |  |  |  |  |  |  |  |  |  |  |  |  |  |  |  |  |  |
| CCCCC/C=C\C/C=C\CCCCCCCC(=O)NC(CS)C(=O)NCCNC(=O)CCN(CCCNCCCCNCCCN)CCC(=O)NCCNC(=O)C(CS)NC(=O)CCCCCCC/C=C\C/C=C\CCCCC (stereo not shown) [SCLn] |  |  | 0.298 | 0.233 | 0.140 | 0.184 | 0.180 | 482 ± 40 nm | 185 ± 22 nm | 51 ± 14 nm | 50 ± 12 nm | 48 ± 12 nm | −28.35 ± 3.61 mV | 26.89 ± 1.85 mV | 26.03 ± 2.25 mV | 28.59 ± 2.25 mV | 17.15 ± 2.99 mV | 4066±185 | greatest hemolytic activity |
